{"source": "patent US6800285B2", "about": "(priority 2000, dated 2004)", "key": {"[1]": {"system": "experimental autoimmune encephalomyelitis (EAE)", "conditions": "unlike MBP; cited from earlier work"}, "TMEV [2]": {"system": "TMEV", "assay": "TMEV antigen expression (virus antigen-positive cells)", "type": "in vivo, Theiler's murine encephalomyelitis virus", "conditions": "6-9 wks after high-dose immunization"}, "TMEV [3]": {"system": "TMEV", "assay": "Serum anti-TMEV IgG titers after glatiramer acetate immunization", "type": "in vivo, Theiler's murine encephalomyelitis virus", "conditions": "four weeks after immunization, vs control mice", "description": "An indirect ELISA was performed in which serum or a purified antibody was applied to plates that were pre-coated with glatiramer acetate or other protein antigens. The antigen of interest was dissolved in 0.1 M carbonate buffer, pH 9.5, and applied at 1 μg per well in 96-well polystrene plates. Incubation was overnight at 4° C. Plates were then rinsed with PBST (phosphate buffered saline containing 0.05% Tween 20 detergent) and incubated for 1 hr in PBSM (phosphate buffered saline containing 5% defatted milk powder). Plates were rinsed with PBST, then incubated for 4 hr at room temperature with 50×PBS. Plates were rinsed with PBST, then incubated with biotinylated secondary antibodies that were raised in goat. The secondary antibodies, diluted in PBSM 1:50, were specific to mouse IgG or mouse IgM. Incubation was for 2 hr at room temperature. Plates were rinsed in PBST, then PBS. Streptavidin-alkaline phosphatase conjugate diluted in PBS was applied to the plates for 2 hr room temperature. Plates were rinsed with PBST, with a final rinse in water. The colored reaction product was produced by incubation with p-nitrophenyl phosphatase in 0.1 M carbonate buffer plus 1 mM magnesium chloride. The reaction was stopped with 0.5 N sodium hydroxide. […] Optical absorbency was measured at a wavelength of 405 nm.\n(§1) Serum titers of antibodies against TMEV and anti-TMEV DTH reactions were measured."}, "[4]": {"system": "SJL/J mice infected with Theiler's murine encephalomyelitis virus", "assay": "Spinal cord demyelination quantitation (lesion load) in TMEV-infected mice", "type": "in vivo, mouse", "description": "(§2) All mice used in the experiments were SJL/J mice (Jackson Laboratories, Bar Harbor, Me.). Six- to eight-week-old mice were intracerebrally injected with 2.0×10^6 pfu of Daniel's strain of Theiler's murine encephalomyelitis virus.\n(§3) Areas of spinal cord demyelination (lesion load) and remyelination (73) were determined from multiple cross-sections of plastic-embedded spinal cords, using a camera lucida system and a computerized drawing tablet (39). Briefly, mice were sacrificed by overdose with sodium pentobarbital and perfused by intracardiac puncture with Trumps fixative, containing 4% paraformaldehyde and 1% glutaraldehyde. Spinal cords were removed, post-fixed in osmium textroxide, and sectioned into 1 mm blocks. Every third block (10-12 blocks per spinal cord; cervical to lumbar range) was embedded in Araldite plastic. The embedded tissues were cross-sectioned at 1 μm thickness, and the slides stained with 4% paraphenylenediamine to highlight the myelin sheaths.\nUsing a camera lucida attached to a Zeiss photomicroscope and a ZIDAS interactive digital analysis system, three parameters were measured from each slide: total white matter area, demyelinated lesion area, and remyelination area. Outline of these regions were traced and the areas calculated by the computerized digital analysis system. Demyelination was expressed as the total lesion area as a percentage of total white matter area. Remyelination was expressed as the total remyelination area as a percentage of the total demyelinated lesion area. The criterion for remyelination by oligodendrocytes was abnormally thin myelin sheaths. All remyelination data refers to oligodendrocyte-mediated remyelination. Occasionally, Schwann-cell mediated remyelination was observed, characterized by abnormally thick myelin sheaths and nuclei juxtaposed to the myelin sheath.\nVirus was injected on Day 0.\nChronically infected mice (124-365 days post-infection) were treated subcutaneously for periods of 41-76 days. […] These mice were sacrificed after 65 days. […] The members of this group were sacrificed after 65-76 days. […] Sacrifice of these mice occurred after 41-65 days. The control group of mice received PBS. In all groups, spinal cord demyelination was measured after sacrifice.\nChronically infected mice (160-477 days post-infection) were treated by intraperitoneal injection with antibodies for periods of 36-76 days. One group of mice received Normal antibodies, administered in 10 injections of 0.05 mg each for a total of 0.5 mg over 42 days. […] PBS was administered to the control group of mice. Spinal cord white matter demyelinating pathology was measured post-sacrifice for all mice.\nEach mouse received 5 weekly injections for total antibody doses of 0.5 or 1.5 mg (0.1-0.3 mg/injection). After sacrifice, spinal cord demyelination was measured."}, "UV-inactivated TMEV": {"system": "UV-inactivated TMEV", "assay": "TMEV delayed type hypersensitivity (ear thickness)", "type": "in vivo, mouse", "conditions": "immunized mice vs IFA control", "description": "Ear thickness was measured prior to injection, and 24 and 48 hr after injection.\nas §1"}, "multiple sclerosis": {"system": "multiple sclerosis", "conditions": "daily subcutaneous injections, 20 mg/injection; cited from earlier work"}, "[5]": {"system": "SJL/J mice infected with Theiler's murine encephalomyelitis virus", "assay": "Spinal cord remyelination quantitation in TMEV-infected mice", "type": "in vivo, mouse", "description": "as §2\nas §3, with “The embedded tissues were cross-sectioned at 1 μm thickness, and the slides stained with 4% paraphenylenediamine to highlight the myelin sheaths.” left out\nUsing a camera lucida attached to a Zeiss photomicroscope and a ZIDAS interactive digital analysis system, three parameters were measured from each slide: total white matter area, demyelinated lesion area, and remyelination area. Outline of these regions were traced and the areas calculated by the computerized digital analysis system. Demyelination was expressed as the total lesion area as a percentage of total white matter area. Remyelination was expressed as the total remyelination area as a percentage of the total demyelinated lesion area. […]"}, "[6]": {"system": "lymph node-derived lymphocytes from MBP84-102- and PLP179-191-immunized mice", "assay": "In vitro [3H]-thymidine proliferation of lymph node-derived lymphocytes from myelin peptide-immunized mice", "type": "cell-based, mouse", "conditions": "Experiment 6A; 53 hours culture", "description": "Two mice were subcutaneously injected in the flanks with MBP 84-102 in complete Fruend's adjuvant (CFA). MBP84-102 was obtained by following the procedure of Hawes et al (24). A method similar to that of Tuohy et al. was employed to produce PLP179-191 (70). PLP179-191 in CFA was subcutaneously injected into the flanks of 1 mouse. […] In the last 13 hours of culture, 1 μCi of [^3H]-thymidine was added and its incorporation measured by scintillation counting of harvested cells.\nMice were subcutaneously injected in the flanks with MBP84-102 (2 mice) peptide in CFA. After 10 days, inguinal and peri-aortic lymph nodes were removed, dissociated, and grown for 74 hours in cultures in medium alone or with additional additives as shown in FIG. 17. In the last 12 hours of culture, 1 μCi of [^3H]-thymidine was added and its incorporation measured by scintillation counting of harvested cells."}, "[7]": {"assay": "Serum titres of glatiramer acetate IgG after glatiramer acetate immunization (ELISA)", "type": "in vivo, mouse", "description": "The antigen of interest was dissolved in 0.1 M carbonate buffer, pH 9.5, and applied at 1 μg per well in 96-well polystrene plates. Incubation was overnight at 4° C. Plates were then rinsed with PBST (phosphate buffered saline containing 0.05% Tween 20 detergent) and incubated for 1 hr in PBSM (phosphate buffered saline containing 5% defatted milk powder). Plates were rinsed with PBST, then incubated for 4 hr at room temperature with 50×PBS. Plates were rinsed with PBST, then incubated with biotinylated secondary antibodies that were raised in goat. The secondary antibodies, diluted in PBSM 1:50, were specific to mouse IgG or mouse IgM. Incubation was for 2 hr at room temperature. Plates were rinsed in PBST, then PBS. Streptavidin-alkaline phosphatase conjugate diluted in PBS was applied to the plates for 2 hr room temperature. Plates were rinsed with PBST, with a final rinse in water. The colored reaction product was produced by incubation with p-nitrophenyl phosphatase in 0.1 M carbonate buffer plus 1 mM magnesium chloride. The reaction was stopped with 0.5 N sodium hydroxide. Antibody isotyping was performed using a detection kit and purified isotype standards from Zymed Laboratories (San Francisco, Calif.). Extrapolation of the concentration of each isotype within the antibody samples was based on the sample dilution that produced the absorbence signal falling within the most linear portion of each standard isotype curve. Optical absorbency was measured at a wavelength of 405 nm.\nAntibodies from normal SJL serum (SJL Ig) and commercial, pooled mouse serum (Pooled Ig) were also purifed by Protein A/G chromatography.\nMice were sacrificed on Day 65 post-immunization. […] The secondary antibody was biotinylated anti-mouse IgG.\nSerum was isolated from these mice on Day 62. […] Serum was isolated from these mice on Day 41. […] Serum was isolated on Day 76. […] The secondary antibody was biotinylated anti-mouse IgG.\nThe final passive transfer was on Day 35. After 41 days of treatment, both groups of mice were sacrificed and serum titres of Copolymer IgG was measured by ELISA. The secondary antibody was biotinylated anti-mouse IgG."}}, "data": [{"substance": "L-glutamic acid polymer with L-alanine, L-lysine and L-tyrosine, acetate (salt) [glatiramer acetate]", "values": [{"measurement": "effect on EAE", "setting": "[1]", "value": "inhibits rather than induces"}, {"measurement": "virus expression (virus antigen-positive cells)", "setting": "TMEV [2]", "value": "tended to be higher"}, {"measurement": "anti-TMEV titers (total IgG, IgG1, IgG2a)", "setting": "TMEV [3]", "value": "reduced"}, {"measurement": "effect on extent of demyelination", "setting": "[4]; early disease, 45 days post-infection, 0.1 mg/injection, 60 days of treatment", "value": "no statistically significant effect"}, {"measurement": "effect on demyelinating lesions", "setting": "[4]; late disease, high dose (5 mg glatiramer acetate/IFA, 1-2 injections), vs PBS", "value": "expansion of the demyelinating lesions"}, {"measurement": "white matter demyelinated (mean lesion load)", "setting": "[4]; late disease, high dose of glatiramer acetate", "value": 20, "unit": "%"}, {"measurement": "effect on extent of demyelination", "setting": "[4]; late disease, low doses (0.1 mg/injection), alone or with adjuvant", "value": "did not alter the extent of demyelination"}, {"measurement": "white matter demyelinated (mean lesion load)", "setting": "[4]; late disease, low-dose glatiramer acetate", "value": 10, "unit": "%"}, {"measurement": "anti-TMEV DTH reactions", "setting": "UV-inactivated TMEV", "value": "reduced"}, {"measurement": "clinical effect in multiple sclerosis", "setting": "multiple sclerosis", "value": "reduce relapse rates, appearance of new lesions by magnetic resonance imaging (MRI), and progression of disability"}, {"measurement": "remyelination of lesions (pathology)", "setting": "[5]; Example 8, infected 6 months or longer, glatiramer acetate 0.1 mg/injection or antibodies 1.5 mg total", "value": "not more extensive than following the PBS treatment"}, {"measurement": "effect on extent of oligodendrocyte-mediated remyelination", "setting": "[5]; late disease, s.c. treatment as Experiment 2A, alone or with IFA", "value": "did not affect the extent of oligodendrocyre-mediated remyelination"}, {"measurement": "lymphocyte proliferation", "setting": "[6]", "value": "did not induce significant proliferation"}, {"measurement": "highest antibody titer reached", "setting": "[7]; chronically diseased mice immunized with 5 mg", "value": 1.2, "unit": "mg/mL"}, {"measurement": "dose dependence of production of antibodies against glatiramer acetate", "setting": "[7]; chronically diseased mice, 0.1 vs 5 mg injections", "value": "highly dose-dependent"}, {"measurement": "influence of dose (0.1-1.0 mg) and injection timing on glatiramer acetate IgG titres", "setting": "[7]; non-infected immunized mice", "value": "did not significantly influence glatiramer acetate IgG titres"}, {"measurement": "time required to achieve high antibody titres", "setting": "[7]; non-infected immunized mice", "value": "Approximately 3 weeks"}]}]}
